Measurements published in patent US20240041827A1, “COMPOSITIONS FOR THE TREATMENT OF FAT RELATED CONDITIONS AND DISORDERS” (priority 2020, published 2024).

Test: in vitro
Experimental: Human visceral preadipocytes were seeded in 96-well white clear bottom plates at 10,000 cells per well in 100 μl pre-adipocyte medium and incubated overnight at 37° C. 5% CO2. On the following day, adipogenic differentiation was induced by addition of 100 μl/well differentiation medium and incubation continued for 5 days. Adipogenic differentiation was verified by microscopic evaluation, addition of adipored reagents and fluorescent measurement at Ex485 nm/Em572 nm. […] Staurosporine (1 μM) and 0.2% DMSO were used as controls. Plates were incubated at 37° C. 5% CO2 for 2, 6 and 24 hours. Following incubation, cytotoxicity was measured using Cell Titer Glo 2.0 (Promega).
Test Item RZL-12 (1-300 μM) was prepared on the day of the testing as 150 mM stock solutions in DMSO. The 150 mM represents a 500×stock of the highest desired tested concentration. The 150 mM stock solution was first serially diluted in DMSO to acquire 500×stock solutions for each of the RZL-012 concentrations. The 500×stock solutions were then diluted 1:25 in medium to acquire 20×intermediate stock solutions. Finally, the 20×intermediate stock solutions were further diluted 1:20 in the assay (on the plate) that included seeded cells.
The 600 μM represents a 20× stock of the highest desired tested concentration. […] Finally, the 20×intermediate stock solutions were further diluted 1:20 in the assay plate that included seeded cells.
Human visceral pre-adipocytes (HPrAD-vis): HPrAD-vis cells (Lonza cat #PT-5005) were thawed at 37° C. and transferred into 50 ml tubes containing pre-adipocytes PGM-2 growth medium (PBM-2, 10% FBS, 1-glutamine, GA-1000). Cells were centrifuged at 300 g for 10 minutes, the supernatant was removed (Leaving about 1 ml of wash medium for not disrupting the cells) and 2 ml fresh PGM-2 medium was added. After resuspension, cells were counted and seeded in T-75 and T25 flasks at a density of 9,000 cells/cm^2 ([…], 225,000 cells/T25 flask). Medium was changed every 2-3 days until reached confluence of 70%.
Cells were sub-cultured only once, as soon as they reached 70% confluence. For this purpose, the culture medium of each flask was removed and cells were washed once with 5 ml PBS. The flask was shaken to ensure that the entire surface was covered and the PBS was removed. Then, 3 ml/T75 flask or 1 ml/T25 flask of fresh dedicated Trypsin/EDTA solution (from Lonza) was added and the flasks were incubated for 3-4 minutes at RT until ˜90% cells were detached. The Trypsin/EDTA solution was then neutralized by addition of 6 ml/T75 flask or 3 ml/T25 flask of full PGM-2 growth medium. Cells were collected in 50 ml tubes and centrifuged 10 minutes at 300 g. The supernatant was removed and the cells were resuspended in 3 ml fresh medium. Cells were then counted using a haemacytometer slide after being diluted 1:2 in trypan blue (SIGMA). For sub-culturing, cells were seeded in new T75 flasks at a density of 9,000 cells/cm^2 containing 15 ml fresh growth medium. Alternatively, the cells were seeded in 96-well culture plates at a density of 10,000 cells/well for the cell treatments.
HPrAD-vis cells: HPrAD-vis passaged once were seeded in 96-well plates as described above (10000cells/well in 100 μl medium) and allowed to settle overnight at 37° C., 5% CO2. Following day, adipogenic differentiation was induced by addition of 100 μl/well differentiation medium and incubated for 5 days. Adipogenic differentiation was verified by microscopic evaluation, addition of adipored reagents and fluorescent measurement at Ex485 nm/Em572 nm. In the morning of day 6, test and reference items were prepared as described above. Cells' medium was replaced with 90 μl fresh differentiation medium. […] Staurosporine (1 μM) and 0.2% DMSO were used as controls. Plates were incubated at 37° C. 5% CO2 for 2, 6 and 24 hours. Following incubation, cell viability was determined using the CellTiter-Gg® viability reagent (Promega) with reading of plates for luminescence. […]

Question: Which IC50 does the source give for `C[N+](C)(C)CCCCCn1c2ccc(Br)cc2c2cc(Br)ccc21.[Cl-]` [RZL-012, 5-(3,6-dibromo-9H-carbazol-9-yl)-N,N,N-trimethylpentan-1-aminium chloride] here?
Answer: The IC50 was roughly 30 µM.
